One test deals with CDK2/Cyclin E (Homo sapiens, UniProt P24941). As to the kind of experiment: CDK2/Cyclin E biochemical phosphorylation assay (Caliper mobility shift). The settings on record: apparent IC50; 1.0 mM ATP or ATP Km; 1.25 nM enzyme; 25° C.; read-out: CDK2/cyclin E1 IC50. An outline of the steps: (§1)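 7.5 µM 5-FAM-QSPKKG-CONH2 peptide phosphorylated by CDK2/Cyclin E (1.25 nM) or GST-CDK1/Cyclin B1 (1.5 nM) at 1.0 mM ATP or ATP Km, in HEPES pH 7.5, MgCl2, Brij-35, DTT, 1% DMSO, 25 °C to 10–20% conversion. EDTA stop; Caliper mobility-shift readout; apparent IC50 from percent activity vs log concentration.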

For the next test, the target named is T1, CDK1/Cyclin B1, GST-tag (Homo sapiens, UniProt P06493).
T1 construct: GST
As to the kind of experiment: CDK1/Cyclin B1 biochemical phosphorylation assay (Caliper mobility shift). To be noted: apparent IC50; 1.0 mM ATP or ATP Km; 1.5 nM enzyme; 25° C. The gist of the method: as §1

T1 sequence (P06493 whole entry): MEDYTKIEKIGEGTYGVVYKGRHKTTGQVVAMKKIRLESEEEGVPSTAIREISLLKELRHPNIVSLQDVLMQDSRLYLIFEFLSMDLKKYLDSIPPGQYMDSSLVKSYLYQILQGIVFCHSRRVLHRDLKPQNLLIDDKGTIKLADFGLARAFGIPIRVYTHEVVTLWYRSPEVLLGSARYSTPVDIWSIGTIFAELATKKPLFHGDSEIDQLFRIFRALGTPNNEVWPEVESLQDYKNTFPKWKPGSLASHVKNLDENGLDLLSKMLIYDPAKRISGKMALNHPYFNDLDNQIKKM
T1 sequence (P14635 whole entry partner): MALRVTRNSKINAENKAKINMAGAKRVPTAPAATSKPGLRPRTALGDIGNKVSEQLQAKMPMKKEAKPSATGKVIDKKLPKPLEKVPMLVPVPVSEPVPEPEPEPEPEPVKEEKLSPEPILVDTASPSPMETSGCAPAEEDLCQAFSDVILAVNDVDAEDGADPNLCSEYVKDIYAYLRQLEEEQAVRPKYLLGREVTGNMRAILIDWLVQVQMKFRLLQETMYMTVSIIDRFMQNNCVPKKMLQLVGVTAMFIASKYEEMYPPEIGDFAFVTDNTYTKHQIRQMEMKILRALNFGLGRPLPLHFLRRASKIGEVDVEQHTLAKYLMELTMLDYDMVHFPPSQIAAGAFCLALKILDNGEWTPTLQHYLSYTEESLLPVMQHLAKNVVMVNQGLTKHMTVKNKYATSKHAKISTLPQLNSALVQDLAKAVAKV

Consider `C[C@@H](c1cc(F)ccn1)n1ncc2ncc(Nc3cc(OC(F)F)[nH]n3)nc21` (single isomer, unassigned) [Example 13, (S)—N-(5-(difluoromethoxy)-1H-pyrazol-3-yl)-1-(1-(4-fluoropyridin-2-yl)ethyl)-1H-pyrazolo[3,4-b]pyrazin-6-amine or (R)—N-(5-(difluoromethoxy)-1H-pyrazol-3-yl)-1-(1-(4-fluoropyridin-2-yl)ethyl)-1H-pyrazolo[3,4-b]pyrazin-6-amine], for which the IC50 was not above 10 nM on CDK2/Cyclin E and less than 100 nM at CDK1/Cyclin B1, GST-tag.

Turning to `O[C@H]1CC[C@@H](n2ncc3ncc(Nc4cc(OC(F)F)[nH]n4)nc32)C1` (single isomer, unassigned) [Example 209], the IC50 at CDK2/Cyclin E was more than 100 nM; on CDK1/Cyclin B1, GST-tag, not below 500 nM.

For `OC[C@@H](c1cccnc1)n1ncc2ncc(Nc3cc(OC(F)F)[nH]n3)nc21` [Example 204, (R)-2-(6-((5-(difluoromethoxy)-1H-pyrazol-3-yl)amino)-1H-pyrazolo[3,4-b]pyrazin-1-yl)-2-(pyridin-3-yl)ethan-1-ol], the IC50 on CDK2/Cyclin E was 20 to 30 nM; on CDK1/Cyclin B1, GST-tag, not below 500 nM.

As to `FC[C@@H](C1CCOCC1)n1ncc2ncc(Nc3cc(OC(F)F)[nH]n3)nc21` (single isomer, unassigned) [Example 31], the IC50 is not above 10 nM on CDK2/Cyclin E and less than 100 nM on CDK1/Cyclin B1, GST-tag.

Turning to `FC(F)Oc1cc(Nc2cnc3cnn(Cc4cnccn4)c3n2)n[nH]1` [Example 223, N-(5-(difluoromethoxy)-1H-pyrazol-3-yl)-1-(pyrazin-2-ylmethyl)-1H-pyrazolo[3,4-b]pyrazin-6-amine], the IC50 was 20 to 30 nM on CDK2/Cyclin E and not below 500 nM at CDK1/Cyclin B1, GST-tag.

With `N#C[C@@]1(Cn2ncc3ncc(Nc4cc(OC(F)F)[nH]n4)nc32)CCOC1` (single isomer, unassigned) [Example 169, (S)-3-((6-((5-(difluoromethoxy)-1H-pyrazol-3-yl)amino)-1H-pyrazolo[3,4-b]pyrazin-1-yl)methyl)tetrahydrofuran-3-carbonitrile or (R)-3-((6-((5-(difluoromethoxy)-1H-pyrazol-3-yl)amino)-1H-pyrazolo[3,4-b]pyrazin-1-yl)methyl)tetrahydrofuran-3-carbonitrile], the IC50 on CDK2/Cyclin E was 20 to 30 nM; at CDK1/Cyclin B1, GST-tag it was not below 500 nM.

For `COc1cc(Nc2cnc3cnn(Cc4ccc(F)nc4)c3n2)n[nH]1` [Example 76, 1-((6-fluoropyridin-3-yl)methyl)-N-(5-methoxy-1H-pyrazol-3-yl)-1H-pyrazolo[3,4-b]pyrazin-6-amine], the IC50 on CDK2/Cyclin E was 20 to 30 nM; on CDK1/Cyclin B1, GST-tag, not below 500 nM.

With `COc1cc(Nc2cnc3cnn([C@H](C)C4CC4)c3n2)n[nH]1` [Example 73, (R)-1-(1-cyclopropylethyl)-N-(5-methoxy-1H-pyrazol-3-yl)-1H-pyrazolo[3,4-b]pyrazin-6-amine], the IC50 was 10 to 20 nM at CDK2/Cyclin E and not below 500 nM at CDK1/Cyclin B1, GST-tag.

In the case of `FC(F)Oc1cc(Nc2cnc3cnn([C@@H](c4cccnc4)C4CC4)c3n2)n[nH]1` (single isomer, unassigned) [Example 148, (S)-1-(cyclopropyl(pyridin-3-yl)methyl)-N-(5-(difluoromethoxy)-1H-pyrazol-3-yl)-1H-pyrazolo[3,4-b]pyrazin-6-amine or (R)-1-(cyclopropyl(pyridin-3-yl)methyl)-N-(5-(difluoromethoxy)-1H-pyrazol-3-yl)-1H-pyrazolo[3,4-b]pyrazin-6-amine], the IC50 on CDK2/Cyclin E is not above 10 nM; on CDK1/Cyclin B1, GST-tag it was not below 500 nM.

For `O[C@H]1CC[C@H](n2ncc3ncc(Nc4cc(OC(F)F)[nH]n4)nc32)CC1` [Example 3, (1r,4r)-4-(6-((5-(difluoromethoxy)-1H-pyrazol-3-yl)amino)-1H-pyrazolo[3,4-b]pyrazin-1-yl)cyclohexan-1-ol], the IC50 was not above 10 nM on CDK2/Cyclin E and 100 to 500 nM on CDK1/Cyclin B1, GST-tag.

For the compound `COc1cc(Nc2cnc3c(F)nn([C@@H](C)C4CCOCC4)c3n2)n[nH]1` [Example 123, (S)-3-fluoro-N-(5-methoxy-1H-pyrazol-3-yl)-1-(1-(tetrahydro-2H-pyran-4-yl)ethyl)-1H-pyrazolo[3,4-b]pyrazin-6-amine], the IC50 was not above 10 nM on CDK2/Cyclin E and not below 500 nM at CDK1/Cyclin B1, GST-tag.

On to `C[C@@H](c1cccnc1F)n1nc(Cl)c2ncc(Nc3cc(OC(F)F)[nH]n3)nc21` [Example 17, (S)-3-chloro-N-(5-(difluoromethoxy)-1H-pyrazol-3-yl)-1-(1-(2-fluoropyridin-3-yl)ethyl)-1H-pyrazolo[3,4-b]pyrazin-6-amine], for which the IC50 at CDK2/Cyclin E is not above 10 nM; on CDK1/Cyclin B1, GST-tag it was 100 to 500 nM.

`FC[C@H](c1cccnc1)n1ncc2ncc(Nc3cc(OC(F)F)[nH]n3)nc21` (single isomer, unassigned) [Example 18, (S)—N-(5-(difluoromethoxy)-1H-pyrazol-3-yl)-1-(2-fluoro-1-(pyridin-3-yl)ethyl)-1H-pyrazolo[3,4-b]pyrazin-6-amine or (R)—N-(5-(difluoromethoxy)-1H-pyrazol-3-yl)-1-(2-fluoro-1-(pyridin-3-yl)ethyl)-1H-pyrazolo[3,4-b]pyrazin-6-amine]: the IC50 is 20 to 30 nM on CDK2/Cyclin E and not below 500 nM at CDK1/Cyclin B1, GST-tag.

Take `OC1(Cn2ncc3ncc(Nc4cc(OC(F)F)[nH]n4)nc32)CCC1` [Example 125, 1-((6-((5-(difluoromethoxy)-1H-pyrazol-3-yl)amino)-1H-pyrazolo[3,4-b]pyrazin-1-yl)methyl)cyclobutan-1-ol]: the IC50 at CDK2/Cyclin E is 20 to 30 nM; on CDK1/Cyclin B1, GST-tag, not below 500 nM.

For the compound `FC(F)Oc1cc(Nc2cnc3cnn([C@H](c4ccccc4)C4COC4)c3n2)n[nH]1` (single isomer, unassigned) [Example 161, (S)-N-(5-(difluoromethoxy)-1H-pyrazol-3-yl)-1-(oxetan-3-yl(phenyl)methyl)-1H-pyrazolo[3,4-b]pyrazin-6-amine or (R)-N-(5-(difluoromethoxy)-1H-pyrazol-3-yl)-1-(oxetan-3-yl(phenyl)methyl)-1H-pyrazolo[3,4-b]pyrazin-6-amine], the IC50 on CDK2/Cyclin E is 30 to 100 nM; at CDK1/Cyclin B1, GST-tag it was not below 500 nM.

For the compound `COc1cc(Nc2cnc3cnn([C@@H](C)C4CC4)c3n2)n[nH]1` [Example 68, (S)-1-(1-cyclopropylethyl)-N-(5-methoxy-1H-pyrazol-3-yl)-1H-pyrazolo[3,4-b]pyrazin-6-amine], the IC50 on CDK2/Cyclin E was 10 to 20 nM; at CDK1/Cyclin B1, GST-tag, not below 500 nM.

In the case of `FC(F)Oc1cc(Nc2cnc3c(Cl)nn(CC4CCOCC4)c3n2)n[nH]1` [Example 56, 3-chloro-N-(5-(difluoromethoxy)-1H-pyrazol-3-yl)-1-((tetrahydro-2H-pyran-4-yl)methyl)-1H-pyrazolo[3,4-b]pyrazin-6-amine], the IC50 is 10 to 20 nM at CDK2/Cyclin E and not below 500 nM at CDK1/Cyclin B1, GST-tag.

Consider `FC(F)Oc1cc(Nc2cnc3cnn(CC4(F)CCOCC4)c3n2)n[nH]1` [Example 112, N-(5-(difluoromethoxy)-1H-pyrazol-3-yl)-1-((4-fluorotetrahydro-2H-pyran-4-yl)methyl)-1H-pyrazolo[3,4-b]pyrazin-6-amine], for which the IC50 at CDK2/Cyclin E is 20 to 30 nM; at CDK1/Cyclin B1, GST-tag it was not below 500 nM.

Turning to `COc1cc(Nc2cnc3cnn([C@@H](CF)C4CCOCC4)c3n2)n[nH]1` (single isomer, unassigned) [Example 195, (S)-1-(2-fluoro-1-(tetrahydro-2H-pyran-4-yl)ethyl)-N-(5-methoxy-1H-pyrazol-3-yl)-1H-pyrazolo[3,4-b]pyrazin-6-amine or (R)-1-(2-fluoro-1-(tetrahydro-2H-pyran-4-yl)ethyl)-N-(5-methoxy-1H-pyrazol-3-yl)-1H-pyrazolo[3,4-b]pyrazin-6-amine], the IC50 at CDK2/Cyclin E was more than 100 nM; on CDK1/Cyclin B1, GST-tag, not below 500 nM.

Turning to `Fc1nn(CC2CCOCC2)c2nc(Nc3cc(OC(F)F)[nH]n3)cnc12` [Example 117, N-(5-(difluoromethoxy)-1H-pyrazol-3-yl)-3-fluoro-1-((tetrahydro-2H-pyran-4-yl)methyl)-1H-pyrazolo[3,4-b]pyrazin-6-amine], the IC50 is not above 10 nM on CDK2/Cyclin E and 100 to 500 nM on CDK1/Cyclin B1, GST-tag.

In the case of `FC(F)Oc1cc(Nc2cnc3cnn(C[C@@H]4CC4(F)F)c3n2)n[nH]1` (single isomer, unassigned) [Example 163, (S)-1-((2,2-difluorocyclopropyl)methyl)-N-(5-(difluoromethoxy)-1H-pyrazol-3-yl)-1H-pyrazolo[3,4-b]pyrazin-6-amine or (R)-1-((2,2-difluorocyclopropyl)methyl)-N-(5-(difluoromethoxy)-1H-pyrazol-3-yl)-1H-pyrazolo[3,4-b]pyrazin-6-amine], the IC50 was not above 10 nM on CDK2/Cyclin E and not below 500 nM on CDK1/Cyclin B1, GST-tag.

Turning to `FC(F)Oc1cc(Nc2cnc3cnn(C[C@H]4CCCNC4)c3n2)n[nH]1` [Example 200, (S)—N-(5-(difluoromethoxy)-1H-pyrazol-3-yl)-1-(piperidin-3-ylmethyl)-1H-pyrazolo[3,4-b]pyrazin-6-amine], the IC50 is 20 to 30 nM on CDK2/Cyclin E and not below 500 nM on CDK1/Cyclin B1, GST-tag.

As for `Fc1nn(Cc2cccnc2)c2nc(Nc3cc(OC(F)F)[nH]n3)cnc12` [Example 120, N-(5-(difluoromethoxy)-1H-pyrazol-3-yl)-3-fluoro-1-(pyridin-3-ylmethyl)-1H-pyrazolo[3,4-b]pyrazin-6-amine], the IC50 on CDK2/Cyclin E is not above 10 nM; at CDK1/Cyclin B1, GST-tag, not below 500 nM.

For `N#Cc1nn(CC2CCOCC2)c2nc(Nc3cc(OC(F)F)[nH]n3)cnc12` [Example 62, 6-((5-(difluoromethoxy)-1H-pyrazol-3-yl)amino)-1-((tetrahydro-2H-pyran-4-yl)methyl)-1H-pyrazolo[3,4-b]pyrazine-3-carbonitrile], the IC50 on CDK2/Cyclin E is not above 10 nM; on CDK1/Cyclin B1, GST-tag, not below 500 nM.

As to `C[C@H](C1CC1)n1ncc2ncc(Nc3cc(OC(F)F)[nH]n3)nc21` [Example 55, (R)-1-(1-cyclopropylethyl)-N-(5-(difluoromethoxy)-1H-pyrazol-3-yl)-1H-pyrazolo[3,4-b]pyrazin-6-amine], the IC50 at CDK2/Cyclin E is not above 10 nM; at CDK1/Cyclin B1, GST-tag, not below 500 nM.

Values taken from patent US11970498B2, “CDK2 inhibitors” (BLUEPRINT MEDICINES CORPORATION, priority 2021, dated 2024).
